Source: PMC10247784, “Physiological activation of human and mouse bitter taste receptors by bile acids” (Communications Biology, 2023)
Values joined by “and” are separate entries in the source; they are usually repeats but may differ in a detail not shown here. Equal entries are not always repeated.

Target: T1, human TAS2R1 (Homo sapiens, UniProt Q9NYW7)
T1 construct: expressed in transfected cells; host or cells: HEK293T-Gα16gust44
T1 sequence (Q9NYW7 1-299): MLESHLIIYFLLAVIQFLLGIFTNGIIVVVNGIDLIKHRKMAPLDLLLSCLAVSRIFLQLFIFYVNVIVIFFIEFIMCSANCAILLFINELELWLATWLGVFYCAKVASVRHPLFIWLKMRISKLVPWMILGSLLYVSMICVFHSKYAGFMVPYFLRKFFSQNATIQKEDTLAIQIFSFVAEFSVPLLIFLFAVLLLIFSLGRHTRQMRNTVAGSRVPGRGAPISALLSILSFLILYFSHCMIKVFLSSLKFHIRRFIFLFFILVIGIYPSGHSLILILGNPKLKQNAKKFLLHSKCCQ
Test: Calcium imaging assay (FLIPR), HEK293T-Gα16gust44 cells transfected with human TAS2R1
Type: cell-based
Experimental: This set of bile acids was chosen because of their commercial availability in high purities, their diversity within the class of bile acids and their previous detection and quantitation in human blood. Stock solutions were prepared in DMSO.
As basal growth medium for the HEK293T-Gα16gust44 cell line[17],[59] served Dulbecco’s modified eagle medium (DMEM) (Thermo Fisher Scientific, Darmstadt, Germany) supplemented with 10 % fetal bovine serum (Sigma-Aldrich, Steinheim, Germany), 2 mM L-glutamine (Sigma-Aldrich, Steinheim, Germany), 100 units/ml penicillin (Sigma Aldrich, Steinheim, Germany) and 100 µg/ml streptomycin (Sigma Aldrich, Steinheim, Germany). Growth conditions were 37 °C, 5 % CO2 and saturated air-humidity[60].
HEK293T-Gα16gust44 cells were seeded on poly-D-lysine (10 µg/ml) coated 96-well plates to reach a confluence of 40-60 % the next day. For transient transfection 150 ng of plasmid DNA containing the receptor of interest and 0.3 µl lipofectamine 2000 (Thermo Fisher Scientific, Darmstadt, Germany) per well were used and transfection took place according to the manual of lipofectamine 2000. […] The empty vector DNA (mock) was transfected as negative control[14],[41].
Cells were loaded using the calcium-sensitive fluorescent dye Fluo-4-AM (Abcam, Cambridge, Great Britain) in the presence of 2.5 mM probenecid (Sigma-Aldrich, Steinheim, Germany) the day after transfection[13],[41]. 1 h after loading, cells were washed with C1 buffer using a BioTek Cell Washer, incubated in the dark for half an hour and washed again. For automated agonist application and measurement of fluorescence changes, a FLIPR^TETRA device (Molecular Devices, San José, United States) was used. Viability of cells was tested by application of 100 nM Somatostatin 14 (Bachem, Bubendorf, Switzerland)[42].
Measured data were negative control corrected by subtracting the signal of the mock-transfected cells and exported to Microsoft Excel using the FLIPR software ScreenWorks 4.2. In Microsoft Excel software, standardization of maximum fluorescence intensities to the basal fluorescence and normalization to the buffer-only control was done to calculate the relative fluorescence changes (ΔF/F).
Initial screening experiments performed in duplicate wells were confirmed by at least one replication and representative traces were selected for display. All dose-response relationships were determined by three independent experiments (biological replicates) performed in duplicates (technical replicates). Threshold concentrations, defined as lowest substance concentrations leading to statistically significant elevated fluorescence changes in receptor-transfected cells compared with empty vector-transfected cells, were determined using SigmaPlot with Student’s t-test to evaluate statistical significance (p < 0.01).

C[C@H](CCC(=O)O)[C@H]1CC[C@H]2[C@@H]3[C@H](O)C[C@@H]4C[C@H](O)CC[C@]4(C)[C@H]3CC[C@]12C [Chenodeoxycholic Acid, chenodeoxycholic acid]
Efficacy = maximal amplitude (ΔF/F) (TAS2R1, bile acids, mean): 0.1118 | Efficacy (maximal amplitude ΔF/F), individual data points (TAS2R1, bile acids, single replicates, listed as CDCA): 0.09822 and 0.1595 and 0.07759 | RLU (Time 0 s): 0 RLU | RLU (Time 2.015 s): 19.0362 RLU | RLU (Time 4.015 s): 1.217 RLU | RLU (Time 6.015 s): -17.015 RLU | RLU (Time 8.015 s): -2.669 RLU | RLU (Time 12.015 s): 20.3444 RLU | RLU (Time 14.015 s): 20.4897 RLU | RLU (Time 16.015 s): 20.4897 RLU | RLU (Time 18.015 s): 0.1896 RLU | RLU (Time 18.796 s): 35.4441 RLU | RLU (Time 20.796 s): 34.972 RLU | RLU (Time 22.796 s): 66.6032 RLU | RLU (Time 24.796 s): 169.759 RLU | RLU (Time 26.796 s): 276.637 RLU | RLU (Time 28.796 s): 430.728 RLU | RLU (Time 30.796 s): 521.85 RLU | RLU (Time 32.796 s): 667.246 RLU | RLU (Time 34.796 s): 744.49 RLU | RLU (Time 36.796 s): 777.672 RLU | RLU (Time 38.796 s): 835.786 RLU | RLU (Time 40.796 s): 853.586 RLU | RLU (Time 42.796 s): 876.11 RLU | RLU (Time 44.796 s): 905.241 RLU | RLU (Time 46.796 s): 902.191 RLU | RLU (Time 48.796 s): 919.121 RLU | RLU (Time 50.796 s): 927.172 RLU | RLU (Time 52.796 s): 893.665 RLU | RLU (Time 54.796 s): 936.083 RLU | RLU (Time 56.796 s): 944.124 RLU | RLU (Time 58.796 s): 915.714 RLU | RLU (Time 60.796 s): 876.524 RLU | RLU (Time 62.796 s): 877.876 RLU | RLU (Time 64.796 s): 906.896 RLU | RLU (Time 66.796 s): 861.974 RLU | RLU (Time 68.796 s): 872.092 RLU | RLU (Time 70.796 s): 871.317 RLU | RLU (Time 72.796 s): 854.469 RLU | RLU (Time 74.796 s): 844.188 RLU | RLU (Time 76.796 s): 841.862 RLU | RLU (Time 78.796 s): 815.084 RLU | RLU (Time 80.796 s): 833.544 RLU | RLU (Time 82.796 s): 792.555 RLU | RLU (Time 84.796 s): 783.457 RLU | RLU (Time 86.796 s): 757.585 RLU | RLU (Time 88.796 s): 790.002 RLU | RLU (Time 90.796 s): 748.006 RLU | RLU (Time 92.796 s): 752.186 RLU | RLU (Time 94.796 s): 735.827 RLU | RLU (Time 96.796 s): 731.254 RLU | RLU (Time 98.796 s): 711.692 RLU | RLU (Time 100.796 s): 698.367 RLU | RLU (Time 102.796 s): 713.847 RLU | RLU (Time 104.796 s): 673.465 RLU | RLU (Time 106.796 s): 693.426 RLU | RLU (Time 108.796 s): 681.535 RLU | RLU (Time 110.796 s): 647.896 RLU | RLU (Time 112.796 s): 643.349 RLU | RLU (Time 114.796 s): 607.76 RLU | RLU (Time 116.796 s): 609.573 RLU | RLU (Time 118.796 s): 614.947 RLU | RLU (Time 120.796 s): 582.22 RLU | RLU (Time 122.796 s): 589.185 RLU | RLU (Time 124.796 s): 584.345 RLU | RLU (Time 126.796 s): 601.503 RLU | RLU (Time 128.796 s): 551.854 RLU | RLU (Time 130.796 s): 581.558 RLU | RLU (Time 132.796 s): 570.089 RLU | RLU (Time 134.796 s): 541.966 RLU | RLU (Time 136.796 s): 537.391 RLU | RLU (Time 137.562 s): 528.381 RLU | RLU (Time 143.562 s): 528.401 RLU | RLU (Time 149.562 s): 492.752 RLU | RLU (Time 155.562 s): 464.959 RLU | RLU (Time 161.562 s): 428.355 RLU | RLU (Time 167.562 s): 423.067 RLU | RLU (Time 173.562 s): 376.724 RLU | RLU (Time 179.562 s): 392.276 RLU | RLU (Time 185.562 s): 341.893 RLU | RLU (Time 191.562 s): 346.95 RLU | RLU (Time 197.562 s): 320.481 RLU | RLU (Time 203.562 s): 327.574 RLU | RLU (Time 209.562 s): 318.301 RLU | RLU (Time 215.562 s): 277.825 RLU | RLU (Time 221.562 s): 283.821 RLU | RLU (Time 227.562 s): 172.224 RLU | RLU (Time 233.562 s): 155.786 RLU | RLU (Time 239.562 s): 141.722 RLU | RLU (Time 245.562 s): 124.55 RLU | RLU (Time 293.562 s): 126.733 RLU | RLU (Time 299.562 s): 134.725 RLU | RLU (calcium trace, sheet TAS2R1, Time 305.562 s): 138.341 RLU | RLU (calcium trace, sheet TAS2R1, Time 311.562 s): 138.414 RLU | RLU (calcium trace, sheet TAS2R1, Time 317.562 s): 144.044 RLU | RLU (calcium trace, sheet TAS2R1, Time 323.562 s): 138.244 RLU | RLU (calcium trace, sheet TAS2R1, Time 329.562 s): 121.3 RLU | RLU (calcium trace, sheet TAS2R1, Time 335.562 s): 104.786 RLU | RLU (calcium trace, sheet TAS2R1, Time 341.562 s): 124.793 RLU | RLU (calcium trace, sheet TAS2R1, Time 347.562 s): 124.739 RLU | RLU (calcium trace, sheet TAS2R1, Time 353.562 s): 136.304 RLU | RLU (calcium trace, sheet TAS2R1, Time 359.562 s): 146.172 RLU | Δ F/F (conc. 0,01 mM, TAS2R1): 0.1118 | Δ F/F (conc. 0,00003 mM, TAS2R1): -0.002448 | Δ F/F (conc. 0,0001 mM, TAS2R1): -0.01316 | Δ F/F (conc. 0,0003 mM, TAS2R1): -0.003718 | Δ F/F (conc. 0,001 mM, TAS2R1): 0.01001 | Δ F/F (conc. 0,003 mM, TAS2R1): 0.03254 | Activation threshold concentration TAS2R1 (lowest concentration with significantly increased fluorescence vs empty vector (p < 0.01)): 3 µM and 3.00 µM | Receptor response TAS2R1 (screening): activated
